Assay results published in ChEMBL document CHEMBL1201862, “PubChem BioAssay data set” (2004).
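96-well plates; 48 h exposure; 5 concentrations. Endpoints by linear interpolation between flanking doses. Not reached: highest tested concentration assigned. Here, GI50 denotes the concentration required for 50% inhibition of growth.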 Active and inactive are the calls of the source. Rule as the data show it: active = GI50 up to about 1.1 µM and inactive = higher.

Legend:
Assay in all cases: inhibition of tumour cell growth, NCI panel, 48 h
[1] = test system: HCC 2998
[2] = test system: MDA-MB-231
[3] = test system: BT-549
[4] = test system: K562
[5] = test system: EKVX
[6] = test system: HT-29
[7] = test system: UO-31
[8] = test system: NCI-H522
[9] = test system: SN12C
[10] = test system: OVCAR-5
[11] = test system: HOP-62
[12] = test system: COLO 205
[13] = test system: LOX IMVI
[14] = test system: SW-620
[15] = test system: HL-60
[16] = test system: MDA-N
[17] = test system: MDA-MB-435
[18] = test system: DU-145
[19] = test system: Malme-3M
[20] = test system: TK-10
[21] = test system: NCI-H226
[22] = test system: SK-MEL-2
[23] = test system: NCI-H23
[24] = test system: MCF7
[25] = test system: UACC-257
[26] = test system: SF-295
[27] = test system: SK-OV-3
[28] = test system: CAKI-1
[29] = test system: RXF 393
[30] = test system: UACC-62
[31] = test system: RPMI-8226
[32] = test system: M14
[33] = test system: OVCAR-4
[34] = test system: U-251
[35] = test system: NCI-H460
[36] = test system: NCI/ADR-RES
[37] = test system: SK-MEL-5
[38] = test system: A549
[39] = test system: 786-0
[40] = test system: SF-268
[41] = test system: SNB-19
[42] = test system: ACHN
[43] = test system: MOLT-4
[44] = test system: CCRF-CEM
[45] = test system: HCT-15
[46] = test system: T47D
[47] = test system: PC-3
[48] = test system: IGROV-1
[49] = test system: HCT-116
[50] = test system: OVCAR-8
[51] = test system: HOP-92
[52] = test system: OVCAR-3
[53] = test system: SNB-75
[54] = test system: KM12
[55] = test system: SK-MEL-28
[56] = test system: A498
[57] = test system: Hs-578T
[58] = test system: SF-539

COC(=O)[C@H](Cc1c[nH]c2ccccc12)NP(=O)(OCCC#N)OCC1OC(n2cc(C)c(=O)[nH]c2=O)CC1N=[N+]=[N-] (some centres not stated)
GI50 [1]: > 100 µM (inactive)
GI50 [2]: > 100 µM (inactive)
GI50 [3]: > 100 µM (inactive)
GI50 [4]: > 100 µM (inactive)
GI50 [5]: > 100 µM (inactive)
GI50 [6]: > 100 µM (inactive)
GI50 [7]: > 100 µM (inactive)
GI50 [8]: > 100 µM (inactive)
GI50 [9]: > 100 µM (inactive)
GI50 [10]: > 100 µM (inactive)
GI50 [11]: > 100 µM (inactive)
GI50 [12]: > 100 µM (inactive)
GI50 [13]: > 100 µM (inactive)
GI50 [14]: > 100 µM (inactive)
GI50 [15]: > 100 µM (inactive)
GI50 [16]: > 100 µM (inactive)
GI50 [17]: > 100 µM (inactive)
GI50 [18]: > 100 µM (inactive)
GI50 [19]: > 100 µM (inactive)
GI50 [20]: > 100 µM (inactive)
GI50 [21]: > 100 µM (inactive)
GI50 [22]: > 100 µM (inactive)
GI50 [23]: > 100 µM (inactive)
GI50 [24]: > 100 µM (inactive)
GI50 [25]: > 100 µM (inactive)
GI50 [26]: > 100 µM (inactive)
GI50 [27]: > 100 µM (inactive)
GI50 [28]: > 100 µM (inactive)
GI50 [29]: > 100 µM (inactive)
GI50 [30]: > 100 µM (inactive)
GI50 [31]: > 100 µM (inactive)
GI50 [32]: > 100 µM (inactive)
GI50 [33]: > 100 µM (inactive)
GI50 [34]: > 100 µM (inactive)
GI50 [35]: > 100 µM (inactive)
GI50 [36]: > 100 µM (inactive)
GI50 [37]: > 100 µM (inactive)
GI50 [38]: > 100 µM (inactive)
GI50 [39]: > 100 µM (inactive)
GI50 [40]: > 100 µM (inactive)
GI50 [41]: > 100 µM (inactive)
GI50 [42]: 50.8 µM (inactive)
GI50 [43]: > 100 µM (inactive)
GI50 [44]: > 100 µM (inactive)
GI50 [45]: > 100 µM
GI50 [46]: > 100 µM (inactive)
GI50 [47]: > 100 µM (inactive)
GI50 [48]: > 100 µM (inactive)
GI50 [49]: > 100 µM (inactive)
GI50 [50]: > 100 µM (inactive)
GI50 [51]: > 100 µM (inactive)
GI50 [52]: > 100 µM (inactive)
GI50 [53]: > 100 µM (inactive)
GI50 [54]: > 100 µM (inactive)

CCOC(=O)C1(C/C=C/CCl)CCCC1=O (configuration not stated)
GI50 [55]: 23 µM (inactive)
GI50 [2]: 16.6 µM (inactive)
GI50 [3]: 18.2 µM (inactive)
GI50 [5]: 19.5 µM (inactive)
GI50 [6]: 24.2 µM (inactive)
GI50 [7]: 20 µM (inactive)
GI50 [8]: 23.7 µM (inactive)
GI50 [9]: 24.1 µM (inactive)
GI50 [10]: 17.8 µM (inactive)
GI50 [11]: 20.5 µM (inactive)
GI50 [12]: 26 µM (inactive)
GI50 [13]: 14.9 µM (inactive)
GI50 [14]: 20.3 µM (inactive)
GI50 [15]: 38.2 µM (inactive)
GI50 [16]: 17.9 µM (inactive)
GI50 [17]: 20.3 µM (inactive)
GI50 [18]: 31.1 µM (inactive)
GI50 [19]: 22.5 µM (inactive)
GI50 [56]: 25.2 µM (inactive)
GI50 [20]: 21.1 µM (inactive)
GI50 [21]: 14.3 µM (inactive)
GI50 [22]: 19 µM (inactive)
GI50 [23]: 18.8 µM (inactive)
GI50 [24]: 16.4 µM (inactive)
GI50 [25]: 35.2 µM (inactive)
GI50 [26]: 37.2 µM (inactive)
GI50 [27]: 33.3 µM (inactive)
GI50 [28]: 29.6 µM (inactive)
GI50 [29]: 16.8 µM (inactive)
GI50 [30]: 14.1 µM (inactive)
GI50 [32]: 18.1 µM (inactive)
GI50 [33]: 29.6 µM (inactive)
GI50 [34]: 24.5 µM (inactive)
GI50 [35]: 30.1 µM (inactive)
GI50 [36]: 19.5 µM (inactive)
GI50 [37]: 15.6 µM (inactive)
GI50 [38]: 21.5 µM (inactive)
GI50 [39]: 22.8 µM (inactive)
GI50 [40]: 25.4 µM (inactive)
GI50 [41]: 23 µM (inactive)
GI50 [57]: 44 µM (inactive)
GI50 [42]: 15.3 µM (inactive)
GI50 [43]: 35.1 µM (inactive)
GI50 [44]: 19.5 µM (inactive)
GI50 [45]: 18.9 µM
GI50 [46]: 23.1 µM (inactive)
GI50 [47]: 30.5 µM (inactive)
GI50 [48]: 18.3 µM (inactive)
GI50 [49]: 17.2 µM (inactive)
GI50 [58]: 20.7 µM (inactive)
GI50 [50]: 20.8 µM (inactive)
GI50 [53]: 19.8 µM (inactive)
GI50 [54]: 20 µM (inactive)
